According to the supplement of paper PMC10307832:

What was measured:
Assay in all cases: relative viability (nuclei count vs DMSO), 5 days (fraction); higher = more cells survive
CX-5461 + Lapatinib = compound: Cc1cnc(CNC(=O)c2c(=O)c3ccc(N4CCCN(C)CC4)nc3n3c2sc2ccccc23)cn1 [CX-5461] + CS(=O)(=O)CCNCc1ccc(-c2ccc3ncnc(Nc4ccc(OCc5cccc(F)c5)c(Cl)c4)c3c2)o1 [Lapatinib] (partner 2 µM)
Summary of the method: (§1)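 Each reported value is a median over duplicate plates. It expresses relative viability: treated-well nuclei count divided by vehicle-well nuclei count. Lung cancer cell lines in 1536-well plates were dosed by pin tool a day after seeding, alone with one drug or with a fixed anchor-drug dose plus five library-drug doses (not always all listed) in √10 steps, and nuclei were counted after 5 days.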

IMD-0354 + Tozasertib = compound: O=C(Nc1cc(C(F)(F)F)cc(C(F)(F)F)c1)c1cc(Cl)ccc1O [IMD-0354] + Cc1cc(Nc2cc(N3CCN(C)CC3)nc(Sc3ccc(NC(=O)C4CC4)cc3)n2)n[nH]1 [Tozasertib] (partner 0.1 µM)
Summary of the method: as §1

IMD-0354 + Decitabine = compound: O=C(Nc1cc(C(F)(F)F)cc(C(F)(F)F)c1)c1cc(Cl)ccc1O [IMD-0354] + Nc1ncn([C@H]2C[C@H](O)[C@@H](CO)O2)c(=O)n1 [Decitabine] (partner 2 µM)
Summary of the method: as §1

CX-5461 + Olaparib = compound: Cc1cnc(CNC(=O)c2c(=O)c3ccc(N4CCCN(C)CC4)nc3n3c2sc2ccccc23)cn1 [CX-5461] + O=C(c1cc(Cc2n[nH]c(=O)c3ccccc23)ccc1F)N1CCN(C(=O)C2CC2)CC1 [Olaparib] (partner 8 µM)
Summary of the method: as §1

201T
relative viability (CX-5461 + Lapatinib; first compound 0.01 µM): 1.01 | relative viability (CX-5461 + Lapatinib; first compound 0.03162 µM): 1.06 | relative viability (CX-5461 + Lapatinib; first compound 0.1 µM): 1.03 | relative viability (CX-5461 + Lapatinib; first compound 0.3162 µM): 0.82 | relative viability (CX-5461 + Lapatinib; first compound 1 µM): 0.981 | relative viability (IMD-0354 + Tozasertib; first compound 0.04 µM): 1.14 | relative viability (IMD-0354 + Tozasertib; first compound 0.1265 µM): 0.996 | relative viability (IMD-0354 + Tozasertib; first compound 0.4 µM): 0.614 | relative viability (IMD-0354 + Tozasertib; first compound 1.265 µM): 1.06 | relative viability (IMD-0354 + Tozasertib; first compound 4 µM): 0.354 | relative viability (IMD-0354 + Decitabine; first compound 0.04 µM): 0.797 | relative viability (IMD-0354 + Decitabine; first compound 0.1265 µM): 0.807 | relative viability (IMD-0354 + Decitabine; first compound 0.4 µM): 0.851 | relative viability (IMD-0354 + Decitabine; first compound 1.265 µM): 0.828 | relative viability (IMD-0354 + Decitabine; first compound 4 µM): 0.331 | relative viability (CX-5461 + Olaparib; first compound 0.01 µM): 0.888 | relative viability (CX-5461 + Olaparib; first compound 0.03162 µM): 0.841 | relative viability (CX-5461 + Olaparib; first compound 0.1 µM): 0.856 | relative viability (CX-5461 + Olaparib; first compound 0.3162 µM): 0.84 | relative viability (CX-5461 + Olaparib; first compound 1 µM): 0.793

A549
relative viability (CX-5461 + Lapatinib; first compound 0.01 µM): 0.989 | relative viability (CX-5461 + Lapatinib; first compound 0.03162 µM): 1.04 | relative viability (CX-5461 + Lapatinib; first compound 0.1 µM): 0.698 | relative viability (CX-5461 + Lapatinib; first compound 0.3162 µM): 0.867 | relative viability (CX-5461 + Lapatinib; first compound 1 µM): 0.0911 | relative viability (IMD-0354 + Decitabine; first compound 0.04 µM): 0.269 | relative viability (IMD-0354 + Decitabine; first compound 0.1265 µM): 0.229 | relative viability (IMD-0354 + Decitabine; first compound 0.4 µM): 0.249 | relative viability (IMD-0354 + Decitabine; first compound 1.265 µM): 0.296 | relative viability (IMD-0354 + Decitabine; first compound 4 µM): 0.1 | relative viability (CX-5461 + Olaparib; first compound 0.01 µM): 0.487 | relative viability (CX-5461 + Olaparib; first compound 0.03162 µM): 0.418 | relative viability (CX-5461 + Olaparib; first compound 0.1 µM): 0.31 | relative viability (CX-5461 + Olaparib; first compound 0.3162 µM): 0.0579 | relative viability (CX-5461 + Olaparib; first compound 1 µM): 0.0629

A-427
relative viability (CX-5461 + Lapatinib; first compound 0.01 µM): 1.06 | relative viability (CX-5461 + Lapatinib; first compound 0.03162 µM): 0.999 | relative viability (CX-5461 + Lapatinib; first compound 0.1 µM): 1.04 | relative viability (CX-5461 + Lapatinib; first compound 1 µM): 0.908 | relative viability (IMD-0354 + Tozasertib; first compound 0.04 µM): 0.204 | relative viability (IMD-0354 + Tozasertib; first compound 0.1265 µM): 0.211 | relative viability (IMD-0354 + Tozasertib; first compound 0.4 µM): 0.232 | relative viability (IMD-0354 + Tozasertib; first compound 1.265 µM): 0.137 | relative viability (IMD-0354 + Tozasertib; first compound 4 µM): 0.148 | relative viability (IMD-0354 + Decitabine; first compound 0.04 µM): 0.709 | relative viability (IMD-0354 + Decitabine; first compound 0.1265 µM): 0.593 | relative viability (IMD-0354 + Decitabine; first compound 0.4 µM): 0.522 | relative viability (IMD-0354 + Decitabine; first compound 1.265 µM): 0.15 | relative viability (IMD-0354 + Decitabine; first compound 4 µM): 0.175 | relative viability (CX-5461 + Olaparib; first compound 0.01 µM): 0.802 | relative viability (CX-5461 + Olaparib; first compound 0.03162 µM): 0.772 | relative viability (CX-5461 + Olaparib; first compound 0.1 µM): 0.626 | relative viability (CX-5461 + Olaparib; first compound 0.3162 µM): 0.247 | relative viability (CX-5461 + Olaparib; first compound 1 µM): 0.465

ABC-1
relative viability (CX-5461 + Lapatinib; first compound 0.01 µM): 1.17 | relative viability (CX-5461 + Lapatinib; first compound 0.03162 µM): 1.32 | relative viability (CX-5461 + Lapatinib; first compound 0.1 µM): 1.04 | relative viability (CX-5461 + Lapatinib; first compound 1 µM): 1.05 | relative viability (IMD-0354 + Tozasertib; first compound 0.04 µM): 0.169 | relative viability (IMD-0354 + Tozasertib; first compound 0.1265 µM): 0.181 | relative viability (IMD-0354 + Tozasertib; first compound 0.4 µM): 0.174 | relative viability (IMD-0354 + Tozasertib; first compound 1.265 µM): 0.118 | relative viability (IMD-0354 + Tozasertib; first compound 4 µM): 0.161 | relative viability (IMD-0354 + Decitabine; first compound 0.04 µM): 1.23 | relative viability (IMD-0354 + Decitabine; first compound 0.1265 µM): 0.985 | relative viability (IMD-0354 + Decitabine; first compound 0.4 µM): 0.851 | relative viability (IMD-0354 + Decitabine; first compound 4 µM): 0.36 | relative viability (CX-5461 + Olaparib; first compound 0.01 µM): 0.798 | relative viability (CX-5461 + Olaparib; first compound 0.1 µM): 1.04 | relative viability (CX-5461 + Olaparib; first compound 0.3162 µM): 0.594 | relative viability (CX-5461 + Olaparib; first compound 1 µM): 0.517

CAL-12T
relative viability (CX-5461 + Lapatinib; first compound 0.01 µM): 0.697 | relative viability (CX-5461 + Lapatinib; first compound 0.03162 µM): 0.673 | relative viability (CX-5461 + Lapatinib; first compound 0.1 µM): 0.486 | relative viability (CX-5461 + Lapatinib; first compound 0.3162 µM): 0.247 | relative viability (CX-5461 + Lapatinib; first compound 1 µM): 0.617 | relative viability (IMD-0354 + Tozasertib; first compound 0.04 µM): 0.399 | relative viability (IMD-0354 + Tozasertib; first compound 0.1265 µM): 0.307 | relative viability (IMD-0354 + Tozasertib; first compound 0.4 µM): 0.242 | relative viability (IMD-0354 + Tozasertib; first compound 1.265 µM): 0.278 | relative viability (IMD-0354 + Tozasertib; first compound 4 µM): 0.111 | relative viability (CX-5461 + Olaparib; first compound 0.01 µM): 0.732 | relative viability (CX-5461 + Olaparib; first compound 0.03162 µM): 0.747 | relative viability (CX-5461 + Olaparib; first compound 0.1 µM): 0.699 | relative viability (CX-5461 + Olaparib; first compound 0.3162 µM): 0.634 | relative viability (CX-5461 + Olaparib; first compound 1 µM): 0.508

Calu-6
relative viability (CX-5461 + Lapatinib; first compound 0.01 µM): 1.04 | relative viability (CX-5461 + Lapatinib; first compound 0.03162 µM): 1.16 | relative viability (CX-5461 + Lapatinib; first compound 0.1 µM): 0.964 | relative viability (CX-5461 + Lapatinib; first compound 0.3162 µM): 0.998 | relative viability (CX-5461 + Lapatinib; first compound 1 µM): 0.405 | relative viability (CX-5461 + Olaparib; first compound 0.01 µM): 0.523 | relative viability (CX-5461 + Olaparib; first compound 0.03162 µM): 0.546 | relative viability (CX-5461 + Olaparib; first compound 0.1 µM): 0.482 | relative viability (CX-5461 + Olaparib; first compound 0.3162 µM): 0.543 | relative viability (CX-5461 + Olaparib; first compound 1 µM): 0.253

ChaGo-K-1
relative viability (IMD-0354 + Tozasertib; first compound 0.04 µM): 0.226 | relative viability (IMD-0354 + Tozasertib; first compound 0.1265 µM): 0.196 | relative viability (IMD-0354 + Tozasertib; first compound 0.4 µM): 0.236 | relative viability (IMD-0354 + Tozasertib; first compound 1.265 µM): 0.171 | relative viability (IMD-0354 + Tozasertib; first compound 4 µM): 0.176 | relative viability (IMD-0354 + Decitabine; first compound 0.04 µM): 0.509 | relative viability (IMD-0354 + Decitabine; first compound 0.1265 µM): 0.508 | relative viability (IMD-0354 + Decitabine; first compound 0.4 µM): 0.435 | relative viability (IMD-0354 + Decitabine; first compound 1.265 µM): 0.511 | relative viability (IMD-0354 + Decitabine; first compound 4 µM): 0.198 | relative viability (CX-5461 + Olaparib; first compound 0.01 µM): 0.381 | relative viability (CX-5461 + Olaparib; first compound 0.03162 µM): 0.403 | relative viability (CX-5461 + Olaparib; first compound 0.1 µM): 0.433 | relative viability (CX-5461 + Olaparib; first compound 0.3162 µM): 0.442 | relative viability (CX-5461 + Olaparib; first compound 1 µM): 0.378

EBC-1
relative viability (CX-5461 + Lapatinib; first compound 0.01 µM): 0.214 | relative viability (CX-5461 + Lapatinib; first compound 0.03162 µM): 0.191 | relative viability (CX-5461 + Lapatinib; first compound 0.1 µM): 0.244 | relative viability (CX-5461 + Lapatinib; first compound 0.3162 µM): 0.2 | relative viability (CX-5461 + Lapatinib; first compound 1 µM): 0.208 | relative viability (CX-5461 + Olaparib; first compound 0.01 µM): 0.684 | relative viability (CX-5461 + Olaparib; first compound 0.03162 µM): 0.701 | relative viability (CX-5461 + Olaparib; first compound 0.1 µM): 0.595 | relative viability (CX-5461 + Olaparib; first compound 0.3162 µM): 0.706 | relative viability (CX-5461 + Olaparib; first compound 1 µM): 0.579

IA-LM
relative viability (CX-5461 + Lapatinib; first compound 0.01 µM): 0.692 | relative viability (CX-5461 + Lapatinib; first compound 0.03162 µM): 0.748 | relative viability (CX-5461 + Lapatinib; first compound 0.1 µM): 0.715 | relative viability (CX-5461 + Lapatinib; first compound 0.3162 µM): 0.669 | relative viability (CX-5461 + Lapatinib; first compound 1 µM): 0.475 | relative viability (CX-5461 + Olaparib; first compound 0.01 µM): 0.838 | relative viability (CX-5461 + Olaparib; first compound 0.03162 µM): 0.83 | relative viability (CX-5461 + Olaparib; first compound 0.1 µM): 0.807 | relative viability (CX-5461 + Olaparib; first compound 0.3162 µM): 0.753 | relative viability (CX-5461 + Olaparib; first compound 1 µM): 0.444

LCLC-103H
relative viability (IMD-0354 + Tozasertib; first compound 0.04 µM): 0.597 | relative viability (IMD-0354 + Tozasertib; first compound 0.1265 µM): 0.509 | relative viability (IMD-0354 + Tozasertib; first compound 0.4 µM): 0.425 | relative viability (IMD-0354 + Tozasertib; first compound 1.265 µM): 0.449 | relative viability (IMD-0354 + Tozasertib; first compound 4 µM): 0.222 | relative viability (IMD-0354 + Decitabine; first compound 0.04 µM): 0.727 | relative viability (IMD-0354 + Decitabine; first compound 0.1265 µM): 0.737 | relative viability (IMD-0354 + Decitabine; first compound 0.4 µM): 0.635 | relative viability (IMD-0354 + Decitabine; first compound 1.265 µM): 0.546 | relative viability (IMD-0354 + Decitabine; first compound 4 µM): 0.293 | relative viability (CX-5461 + Olaparib; first compound 0.01 µM): 0.766 | relative viability (CX-5461 + Olaparib; first compound 0.03162 µM): 0.857 | relative viability (CX-5461 + Olaparib; first compound 0.1 µM): 0.793 | relative viability (CX-5461 + Olaparib; first compound 0.3162 µM): 0.788 | relative viability (CX-5461 + Olaparib; first compound 1 µM): 0.762
